Our source for the IC50 values is patent US11447466B2, “Substituted indole compounds useful as inhibitors of TLR7/8/9” (BRISTOL-MYERS SQUIBB COMPANY, priority 2017, dated 2022).

Assay type in all cases: cell-based
One assay concerns the target T1, human TLR9 (Homo sapiens, UniProt Q9NR96).
T1 construct: host or cells: HEK-Blue cells
T1 sequence (Q9NR96 26-1032): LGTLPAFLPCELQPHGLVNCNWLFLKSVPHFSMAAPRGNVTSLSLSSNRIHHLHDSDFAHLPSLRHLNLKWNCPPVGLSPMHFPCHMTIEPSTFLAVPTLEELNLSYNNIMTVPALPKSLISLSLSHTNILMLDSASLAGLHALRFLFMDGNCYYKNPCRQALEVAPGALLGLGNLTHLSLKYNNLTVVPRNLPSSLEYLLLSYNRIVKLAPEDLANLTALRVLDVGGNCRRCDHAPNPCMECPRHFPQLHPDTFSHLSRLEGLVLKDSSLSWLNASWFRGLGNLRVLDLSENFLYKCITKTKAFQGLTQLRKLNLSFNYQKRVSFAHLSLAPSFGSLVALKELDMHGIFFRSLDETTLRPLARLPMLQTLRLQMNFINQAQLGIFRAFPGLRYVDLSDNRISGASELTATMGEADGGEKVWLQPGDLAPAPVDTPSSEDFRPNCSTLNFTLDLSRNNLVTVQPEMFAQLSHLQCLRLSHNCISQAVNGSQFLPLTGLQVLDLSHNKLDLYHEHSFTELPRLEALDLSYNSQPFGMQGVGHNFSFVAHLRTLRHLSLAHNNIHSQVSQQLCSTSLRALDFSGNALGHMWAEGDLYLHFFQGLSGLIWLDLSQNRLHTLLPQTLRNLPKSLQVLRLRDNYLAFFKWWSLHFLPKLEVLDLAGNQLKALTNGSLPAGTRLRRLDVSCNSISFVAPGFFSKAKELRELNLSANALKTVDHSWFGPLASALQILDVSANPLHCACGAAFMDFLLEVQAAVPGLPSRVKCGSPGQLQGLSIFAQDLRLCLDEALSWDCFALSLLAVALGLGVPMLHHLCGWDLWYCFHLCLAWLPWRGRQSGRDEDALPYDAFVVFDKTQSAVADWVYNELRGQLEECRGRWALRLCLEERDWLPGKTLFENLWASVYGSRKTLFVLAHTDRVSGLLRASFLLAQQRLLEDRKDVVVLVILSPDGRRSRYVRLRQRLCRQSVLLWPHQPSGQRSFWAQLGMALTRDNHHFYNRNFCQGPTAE
Briefly: TLR9 inhibition reporter assay (HEK-Blue SEAP reporter, ODN2006 stimulation). To be noted: HEK-Blue cells overexpressing human TLR9, SEAP reporter, ODN2006 5 nM, 22 hour incubation. In short, it runs like this: (§1)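 Agonists used: gardiquimod 7.5 μM (TLR7), R848 15.9 μM (TLR8), ODN2006 5 nM (TLR9), added after 30 min room-temperature compound pre-treatment (0.05 nM–50 μM) of receptor-overexpressing HEK-Blue cells. SEAP reporter (NF-κB/AP-1 driven) read after 22 h at 37 °C; inhibition scaled between agonist+DMSO and reference-inhibitor wells.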
In general terms: A reporter such as luciferase makes a cellular process visible.

A further assay addresses T2, human TLR7 (Homo sapiens, UniProt Q9NYK1).
T2 construct: host or cells: HEK-Blue cells
T2 sequence (Q9NYK1 27-1049): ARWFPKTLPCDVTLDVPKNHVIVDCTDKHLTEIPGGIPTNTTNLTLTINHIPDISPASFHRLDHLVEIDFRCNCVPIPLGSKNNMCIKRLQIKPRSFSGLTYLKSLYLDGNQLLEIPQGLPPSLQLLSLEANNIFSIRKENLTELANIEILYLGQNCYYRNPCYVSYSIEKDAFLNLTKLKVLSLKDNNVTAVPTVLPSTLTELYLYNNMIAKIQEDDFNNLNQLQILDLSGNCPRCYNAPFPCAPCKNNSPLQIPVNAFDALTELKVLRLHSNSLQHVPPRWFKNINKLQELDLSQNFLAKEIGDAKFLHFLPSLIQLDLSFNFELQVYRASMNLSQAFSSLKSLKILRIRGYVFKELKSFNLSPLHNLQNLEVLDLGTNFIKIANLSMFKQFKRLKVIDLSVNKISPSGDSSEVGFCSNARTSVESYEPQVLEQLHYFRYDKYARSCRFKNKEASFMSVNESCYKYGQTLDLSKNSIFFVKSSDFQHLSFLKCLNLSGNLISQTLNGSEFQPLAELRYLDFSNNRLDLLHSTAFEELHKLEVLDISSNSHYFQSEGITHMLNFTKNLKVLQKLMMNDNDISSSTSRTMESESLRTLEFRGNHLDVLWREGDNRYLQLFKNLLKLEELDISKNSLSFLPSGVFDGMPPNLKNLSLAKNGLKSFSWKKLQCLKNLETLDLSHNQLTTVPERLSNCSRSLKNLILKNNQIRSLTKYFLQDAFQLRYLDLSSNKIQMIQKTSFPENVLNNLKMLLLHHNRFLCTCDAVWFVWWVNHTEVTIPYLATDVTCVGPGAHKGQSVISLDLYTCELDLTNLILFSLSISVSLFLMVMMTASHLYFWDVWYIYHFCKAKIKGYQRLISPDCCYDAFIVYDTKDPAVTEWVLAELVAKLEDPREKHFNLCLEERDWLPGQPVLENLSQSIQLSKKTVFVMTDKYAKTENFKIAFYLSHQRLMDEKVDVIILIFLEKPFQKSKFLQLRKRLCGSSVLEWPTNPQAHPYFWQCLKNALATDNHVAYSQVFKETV
Briefly: TLR7 inhibition reporter assay (HEK-Blue SEAP reporter, gardiquimod stimulation). To be noted: HEK-Blue cells overexpressing human TLR7, SEAP reporter, gardiquimod 7.5 μM, 22 hour incubation. In short, it runs like this:
as §1

The target of the next assay is T3, human TLR8 (Homo sapiens, UniProt Q9NR97).
T3 construct: host or cells: HEK-Blue cells
T3 sequence (Q9NR97 27-1041): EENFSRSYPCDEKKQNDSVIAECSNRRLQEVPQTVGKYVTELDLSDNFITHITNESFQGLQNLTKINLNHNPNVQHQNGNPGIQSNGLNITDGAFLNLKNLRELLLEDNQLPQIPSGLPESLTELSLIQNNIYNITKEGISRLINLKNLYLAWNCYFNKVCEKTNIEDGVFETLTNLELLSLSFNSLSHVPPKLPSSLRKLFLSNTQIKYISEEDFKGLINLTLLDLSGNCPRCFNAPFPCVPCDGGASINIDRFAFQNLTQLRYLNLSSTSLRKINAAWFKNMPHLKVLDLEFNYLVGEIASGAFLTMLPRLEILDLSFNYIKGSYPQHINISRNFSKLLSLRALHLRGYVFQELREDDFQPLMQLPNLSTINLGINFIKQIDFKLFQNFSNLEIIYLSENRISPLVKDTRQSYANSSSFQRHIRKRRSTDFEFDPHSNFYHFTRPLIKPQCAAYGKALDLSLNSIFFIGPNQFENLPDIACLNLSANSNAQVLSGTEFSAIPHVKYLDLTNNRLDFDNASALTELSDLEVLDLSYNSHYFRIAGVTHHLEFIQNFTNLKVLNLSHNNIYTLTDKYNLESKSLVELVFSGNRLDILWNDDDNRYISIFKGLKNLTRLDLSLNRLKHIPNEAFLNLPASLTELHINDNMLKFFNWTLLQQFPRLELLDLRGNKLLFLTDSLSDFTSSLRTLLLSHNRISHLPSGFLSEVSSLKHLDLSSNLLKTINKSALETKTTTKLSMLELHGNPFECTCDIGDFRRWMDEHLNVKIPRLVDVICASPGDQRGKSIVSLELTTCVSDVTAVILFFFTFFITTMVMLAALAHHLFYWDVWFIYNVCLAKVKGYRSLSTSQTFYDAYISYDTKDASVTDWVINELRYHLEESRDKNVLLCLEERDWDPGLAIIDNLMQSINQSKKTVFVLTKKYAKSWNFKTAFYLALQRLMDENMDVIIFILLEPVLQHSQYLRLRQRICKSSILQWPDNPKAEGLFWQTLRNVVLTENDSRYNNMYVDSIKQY
Briefly: TLR8 inhibition reporter assay (HEK-Blue SEAP reporter, R848 stimulation). To be noted: HEK-Blue cells overexpressing human TLR8, SEAP reporter, R848 15.9 μM, 22 hour incubation. In short, it runs like this: as §1

By IC50 is commonly meant the concentration that inhibits the measured activity by half. Lower therefore signals greater potency in that assay.

Regarding `CC(C)c1c(-c2cc(-c3cccnc3)c(=O)n(C)c2)[nH]c2ccc(C3CCN(C(C)C)CC3)cc12` [Example 235, 5-(3-isopropyl-5-(1-isopropylpiperidin-4-yl)-1H-indol-2-yl)-1-methyl-[3,3′-bipyridin]-2(1H)-one], the IC50 came out at 1770 nM on human TLR9, 11 nM against human TLR7 and 5.2 nM against human TLR8.
As for `Cc1cc(-c2[nH]c3ccc(C4CCN(C5CCOC5)CC4)cc3c2C(C)C)nn(C)c1=O` (stereo not drawn) [Example 193, 6-(3-isopropyl-5-(1-(tetrahydrofuran-3-yl)piperidin-4-yl)-1H-indol-2-yl)-2,4-dimethylpyridazin-3(2H)-one], the IC50 at human TLR9 was 8920 nM; on human TLR7, 12.6 nM; against human TLR8, 11.7 nM.
Turning to `CC(C)c1c(-c2ccc(=O)n(CC(C)(C)O)c2)[nH]c2ccc(C3CCNCC3)cc12` [Example 48, 1-(2-hydroxy-2-methylpropyl)-5-(3-isopropyl-5-(piperidin-4-yl)-1H-indol-2-yl)pyridin-2(1H)-one], the IC50 is 1270 nM at human TLR9, 13900 nM on human TLR7 and no less than 50000 nM against human TLR8.
Turning to `Cc1cc(-c2[nH]c3ccc(C4CCN(CC(C)(C)O)CC4)cc3c2C(C)C)cn(C)c1=O` [Example 310, 5-(5-(1-(2-hydroxy-2-methylpropyl)piperidin-4-yl)-3-isopropyl-1H-indol-2-yl)-1,3-dimethylpyridin-2(1H)-one], the IC50 against human TLR9 was determined as 5540 nM; against human TLR7, 2.3 nM; at human TLR8, 1.3 nM.
For `CC(C)c1c(-c2cc(-c3ccccc3)c(=O)n(C)c2)[nH]c2ccc(C3CCN(CC(=O)N(C)C)CC3)cc12` [Example 170, 2-(4-(3-isopropyl-2-(1-methyl-6-oxo-5-phenyl-1,6-dihydropyridin-3-yl)-1H-indol-5-yl)piperidin-1-yl)-N,N-dimethylacetamide] the same measures were 2080 nM, 19.8 nM and 14.4 nM.
Taken in the same sequence, the figures for `Cc1cc(-c2[nH]c3ccc(C4CCN(C5CCC(C(F)(F)F)CC5)CC4)cc3c2C(C)C)cn(C)c1=O` (stereo not drawn) [Example 231, 5-(3-isopropyl-5-(1-(4-(trifluoromethyl)cyclohexyl)piperidin-4-yl)-1H-indol-2-yl)-1,3-dimethylpyridin-2(1H)-one] were 3230 nM, 7 nM and 22.3 nM.
For `Cc1c(-c2[nH]c3ccc(C4CCN(CC(=O)N(C)C)CC4)cc3c2C(C)C)cc(C#N)c(=O)n1C` [Example 145, 2-(4-(2-(5-cyano-1,2-dimethyl-6-oxo-1,6-dihydropyridin-3-yl)-3-isopropyl-1H-indol-5-yl)piperidin-1-yl)-N,N-dimethylacetamide] the same measures were 7170 nM, 63.8 nM and 10.7 nM.
For `Cc1cc(-c2[nH]c3ccc(C4CCN(Cc5cc(OC(F)F)ccc5F)CC4)cc3c2C(C)C)cn(C)c1=O` [Example 78, 5-(5-(1-(5-(difluoromethoxy)-2-fluorobenzyl)piperidin-4-yl)-3-isopropyl-1H-indol-2-yl)-1,3-dimethylpyridin-2(1H)-one], the IC50 against human TLR9 worked out at 34800 nM; on human TLR7, 67.6 nM; against human TLR8 it was 64 nM.
Taken in the same sequence, the figures for `CC(C)c1c(-c2ccc(=O)n(CC(N)=O)c2)[nH]c2ccc(C3CCNCC3)cc12` [Example 49, 2-(5-(3-isopropyl-5-(piperidin-4-yl)-1H-indol-2-yl)-2-oxopyridin-1(2H)-yl)acetamide] were no less than 50000 nM, 2610 nM and 2090 nM.
As for `Cc1cc(-c2[nH]c3ccc(C4CCN(CC5=NN=CC5)CC4)cc3c2C(C)C)cn(C)c1=O` [Example 200, 5-(5-(1-((4H-pyrazol-3-yl)methyl)piperidin-4-yl)-3-isopropyl-1H-indol-2-yl)-1,3-dimethylpyridin-2(1H)-one], the results for the IC50 on human TLR9, against human TLR7 and on human TLR8 were 3740 nM, 4.3 nM and 2.2 nM, respectively.
For `Cc1cc(-c2[nH]c3ccc(C4CCN(C5CCOCC5)CC4)cc3c2C(C)C)nn(C)c1=O` [Example 194, 6-(3-isopropyl-5-(1-(tetrahydro-2H-pyran-4-yl)piperidin-4-yl)-1H-indol-2-yl)-2,4-dimethylpyridazin-3(2H)-one] the same measures were 2980 nM, 10.2 nM and 6.3 nM.
As for `Cc1c(-c2[nH]c3ccc(C4CCN(CC(C)(C)O)CC4)cc3c2C(C)C)cn(C)c(=O)c1Cl` [Example 309, 3-chloro-5-(5-(1-(2-hydroxy-2-methylpropyl)piperidin-4-yl)-3-isopropyl-1H-indol-2-yl)-1,4-dimethylpyridin-2(1H)-one], the figures for the half-maximal inhibitory concentration (IC50) at human TLR9, against human TLR7 and against human TLR8 were 8510 nM, 13.7 nM and 5.3 nM, respectively.
